Holding throughout (format): biochemical
Experiment [1] addresses T1, μ-opioid receptor (Homo sapiens (Human), UniProt P35372). As to the kind of experiment: μ-opioid receptor [35S]GTPγS functional assay, U-2 OS cells (Table 5). As to conditions: for Emax: relative to DAMGO; for EC50: μ GTP. In a few lines:
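Membranes (0.026 mg/mL) from cells expressing recombinant human μ-opioid receptor in a U-2 OS background were incubated with 0.20 nM [35S]GTPγS, 3 mM GDP and saponin in 20 mM HEPES pH 7.4, 100 mM NaCl, 10 mM MgCl2 for 30 min at about 25 °C. Filter-bound radioactivity counted; sigmoidal dose-response fits gave values, Emax relative to DAMGO.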
In general terms: GTPγS resists hydrolysis and so accumulates on activated G proteins.

Experiment [2] addresses T2, κ-opioid receptor (Homo sapiens (Human), UniProt P41145). In words: κ-opioid receptor [35S]GTPγS functional assay, HEK-293 or CHO cells (Table 4). Conditions: for Emax: relative to U69,593; for EC50: κ GTP. As to the method:
κ-Opioid Receptor Functional Assay Procedures: Functional [^35S]GTPγS binding assays were conducted as follows. κ opioid receptor membrane solution was prepared by sequentially adding final concentrations of 0.026 μg/μl κ membrane protein (in-house), 10 μg/mL saponin, 3 μM GDP and 0.20 nM [^35S]GTPγS to binding buffer (100 mM NaCl, 10 mM MgCl2, 20 mM HEPES, pH 7.4) on ice. The prepared membrane solution (190 μl/well) was transferred to 96-shallow well polypropylene plates containing 10 μl of 20× concentrated stock solutions of agonist prepared in DMSO. Plates were incubated for 30 min at a temperature of about 25° C. with shaking. Reactions were terminated by rapid filtration onto 96-well Unifilter GF/B filter plates (Perkin Elmer, Shelton, Conn.) using a 96-well tissue harvester (Packard) and followed by three filtration washes with 200 μl ice-cold binding buffer (10 mM NaH2PO4, 10 mM Na2HPO4, pH 7.4). Filter plates were subsequently dried at 50° C. for 2-3 hours. Fifty μl/well scintillation cocktail (Perkin Elmer, Shelton, Conn.) was added and plates were counted in a Packard Top-Count for 1 min/well.
κ GTP Emax (%) is the maximal effect elicited by a compound relative to the effect elicited by U69,593.
(§1) In TABLE 4, activity response of certain Compounds of the Invention to the μ- and κ-opioid receptors was determined as described above for functional assays using HEK-293 or CHO cells.

For experiment [3], the target named is T2, κ-opioid receptor. In words: κ-opioid receptor [35S]GTPγS functional assay, U-2 OS cells (Table 5). As to conditions: for Emax: relative to U69,593; for EC50: κ GTP. In a few lines: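 [35S]GTPγS binding in κ receptor membranes (0.026 μg/μl protein) with 10 μg/mL saponin, 3 μM GDP and 0.20 nM [35S]GTPγS in pH 7.4 HEPES/NaCl/MgCl2 buffer. Agonist incubation lasted 30 min at about 25 °C, followed by filtration and scintillation counting. Emax is expressed relative to U69,593.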

Experiment [4] deals with T1, μ-opioid receptor. In words: μ-opioid receptor [35S]GTPγS functional assay, HEK-293 or CHO cells (Table 4). As to conditions: for Emax: relative to DAMGO; for EC50: μ GTP. As to the method: μ-Opioid Receptor Functional Assay Procedures: [^35S]GTPγS functional assays were conducted using freshly thawed μ-receptor membranes prepared in-house from a cell line expressing recombinant μ opioid receptor in a HEK-293, CHO or U-2 OS cell background, or purchased from a commercial source (Perkin Elmer, Shelton, Conn.; or DiscovRx, Fremont, Calif.). Assay reactions were prepared by sequentially adding the following reagents to binding buffer (100 mM NaCl, 10 mM MgCl2, 20 mM HEPES, pH 7.4) on ice (final concentrations indicated): membrane protein (0.026 mg/mL), saponin ([…]), GDP ([…]) and [^35S]GTPγS (0.20 nM; Perkin Elmer, Shelton, Conn.). The prepared membrane solution (190 μl/well) was transferred to 96-shallow well polypropylene plates containing 10 μl of 20× concentrated stock solutions of the agonist [D-Ala^2, N-methyl-Phe^4 Gly-ol^5]-enkephalin (DAMGO) prepared in dimethyl sulfoxide (DMSO). Plates were incubated for 30 min at about 25° C. with shaking Reactions were terminated by rapid filtration onto 96-well Unifilter GF/B filter plates (Perkin Elmer, Shelton, Conn.) using a 96-well tissue harvester (Perkin Elmer, Shelton, Conn.) followed by three filtration washes with 200 μl of ice-cold wash buffer (10 mM NaH2PO4, 10 mM Na2HPO4, pH 7.4). Filter plates were subsequently dried at 50° C. for 2-3 hours. BetaScint scintillation cocktail (Perkin Elmer, Shelton, Conn.) was added (50 μl/well) and plates were counted using a Packard Top-Count for 1 min/well. Data were analyzed using the sigmoidal dose-response curve fitting functions in GraphPad PRISM v. 3.0, or an in-house function for non-linear, sigmoidal dose-response curve-fitting. [^35S]GTPγS functional assays can also be conducted using freshly thawed μ-receptor membranes prepared from a cell line expressing recombinant μ opioid receptor in a CHO-K1 cell background.
μ GTP Emax (%) is the maximal effect elicited by a compound relative to the effect elicited by DAMGO, a standard μ agonist.
as §1

As for `N[C@@H]1CC23CCN(CC4CC4)[C@H](Cc4ccc(O)cc42)[C@]3(O)C1` (stereo in doubt) [Compound 22, (2R,3aS,4R,9bS)-2-amino-12-(cyclopropylmethyl)-1,2,3,3a,4,5-hexahydro-4,9b-(epiminoethano)-cyclopenta[a]naphthalene-3a,8-diol], the Emax on μ-opioid receptor [1] stood at 20.7 ± 2.4%; at κ-opioid receptor [2], 77 ± 1%; at κ-opioid receptor [3], 101 ± 1.76%; on μ-opioid receptor [4], 1%. For the same molecule, the EC50 on μ-opioid receptor [1] is 111 ± 14.1 nM; on κ-opioid receptor [2], 25.7 ± 4.99 nM; at κ-opioid receptor [3], 25.4 ± 2.09 nM; at μ-opioid receptor [4] (bound given in μM), more than 20 µM.

With `NC(=O)[C@H]1C[C@]23CCN(CC4CC4)[C@H](Cc4ccc(O)cc42)[C@]3(O)C1` [Compound 30, (2S,3aS,4R,9bS)-12-(cyclopropylmethyl)-3a,8-dihydroxy-1,2,3,3a,4,5-hexahydro-4,9b-(epiminoethano)cyclopenta-[a]naphthalene-2-carboxamide], the Emax worked out at 32 ± 1.15% on μ-opioid receptor [1], 50.7 ± 0.33% on κ-opioid receptor [2], 100 ± 1.2% on κ-opioid receptor [3] and 1% on μ-opioid receptor [4]. Also, the EC50 is 1.62 ± 0.41 nM at μ-opioid receptor [1], 2.49 ± 0.09 nM at κ-opioid receptor [2], 1.26 ± 0.05 nM at κ-opioid receptor [3] and more than 20 µM at μ-opioid receptor [4] (bound given in μM).

`CC(C)CNC(=O)[C@H]1C[C@]23CCN(CC4CC4)[C@H](Cc4ccc(O)cc42)[C@]3(O)C1` [Compound 36, (2S,3aS,4R,9bS)-12-(cyclopropylmethyl)-3a,8-dihydroxy-N-isobutyl-1,2,3,3a,4,5-hexahydro-4,9b-(epiminoethano)-cyclopenta[a]naphthalene-2-carboxamide]: the Emax at μ-opioid receptor [1] was determined as 47.7 ± 3.18%; at κ-opioid receptor [2], 94.7 ± 3.71%; at κ-opioid receptor [3], 108 ± 4.1%; on μ-opioid receptor [4], 1%. The EC50 at μ-opioid receptor [1] was 1.96 ± 0.27 nM; on κ-opioid receptor [2], 2.24 ± 0.46 nM; on κ-opioid receptor [3], 0.27 ± 0.019 nM; at μ-opioid receptor [4] (bound given in μM), more than 20 µM.

`Cc1ccc(CNC(=O)[C@@H]2C[C@]34CCN(CC5CC5)[C@H](Cc5ccc(O)cc53)[C@]4(O)C2)cc1` [Compound 37, (2R,3aS,4R,9bS)-12-(cyclopropylmethyl)-3a,8-dihydroxy-N-(4-methylbenzyl)-1,2,3,3a,4,5-hexahydro-4,9b-(epimino-ethano)cyclopenta[a]naphthalene-2-carboxamide]: the Emax on μ-opioid receptor [1] worked out at 30.7 ± 2.67%; on κ-opioid receptor [2], 32.5 ± 2.1%; on κ-opioid receptor [3], 105.3 ± 0.88%; on μ-opioid receptor [4] it was 1%. Further, the EC50 is 8.48 ± 2.28 nM at μ-opioid receptor [1], 1.74 ± 0.39 nM at κ-opioid receptor [2], 0.97 ± 0.11 nM on κ-opioid receptor [3] and more than 20 µM at μ-opioid receptor [4] (bound given in μM).

With `O=C(NCc1ccc(Cl)cc1Cl)[C@H]1C[C@]23CCN(CC4CC4)[C@H](Cc4ccc(O)cc42)[C@]3(O)C1` [Compound 45, (2S,3aS,4R,9bS)-12-(cyclopropylmethyl)-N-(2,4-dichlorobenzyl)-3a,8-dihydroxy-1,2,3,3a,4,5-hexahydro-4,9b-(epimino-ethano)cyclopenta[a]naphthalene-2-carboxamide], the Emax stood at 87 ± 0.58% at μ-opioid receptor [1], 100 ± 4.62% on κ-opioid receptor [3] and 43.3 ± 4.84% on μ-opioid receptor [4]. Besides, the EC50 stood at 0.14 ± 0.018 nM at μ-opioid receptor [1], 0.018 nM at κ-opioid receptor [3] and 0.00038 ± 4.4e-05 µM on μ-opioid receptor [4].

Consider `O=C(NCc1ccc(F)cc1)[C@@H]1C[C@]23CCN(CC4CC4)[C@H](Cc4ccc(O)cc42)[C@]3(O)C1` [Compound 48, (2R,3aS,4R,9bS)-12-(cyclopropylmethyl)-N-(4-fluorobenzyl)-3a,8-dihydroxy-1,2,3,3a,4,5-hexahydro-4,9b-(epimino-ethano)cyclopenta[a]naphthalene-2-carboxamide], for which the Emax at μ-opioid receptor [1] is 40 ± 1.53%; at κ-opioid receptor [3] it was 106 ± 2.33%; on μ-opioid receptor [4] it was -1%. Further, the EC50 at μ-opioid receptor [1] is 3.12 ± 0.27 nM; at κ-opioid receptor [3], 1.46 ± 0.29 nM; on μ-opioid receptor [4] (bound given in μM), more than 20 µM.

On to `O=C(NCc1cc(F)cc(F)c1)[C@@H]1C[C@]23CCN(CC4CC4)[C@H](Cc4ccc(O)cc42)[C@]3(O)C1` [Compound 49, (2R,3aS,4R,9bS)-12-(cyclopropylmethyl)-N-(3,5-difluorobenzyl)-3a,8-dihydroxy-1,2,3,3a,4,5-hexahydro-4,9b-(epimino-ethano)cyclopenta[a]naphthalene-2-carboxamide], for which the figures for the Emax on μ-opioid receptor [1], at κ-opioid receptor [3] and on μ-opioid receptor [4] were 42.3 ± 1.45%, 108 ± 4.7% and 10.5 ± 0.29%, respectively. The 50% effective concentration (EC50) is 3.73 ± 0.23 nM on μ-opioid receptor [1], 0.82 ± 0.099 nM on κ-opioid receptor [3] and 0.00617 ± 0.00198 µM at μ-opioid receptor [4].

For `O=C(NCCc1ccccc1)[C@H]1C[C@]23CCN(CC4CC4)[C@H](Cc4ccc(O)cc42)[C@]3(O)C1` [Compound 51, (2S,3aS,4R,9bS)-12-(cyclopropylmethyl)-3a,8-dihydroxy-N-phenethyl-1,2,3,3a,4,5-hexahydro-4,9b-(epiminoethano)cyclo-penta[a]naphthalene-2-carboxamide], the values for the Emax on μ-opioid receptor [1], on κ-opioid receptor [3] and at μ-opioid receptor [4] were 87.7 ± 1.2%, 102 ± 2.31% and 43 ± 3.06%, respectively. Also, the figures for the EC50 at μ-opioid receptor [1], at κ-opioid receptor [3] and on μ-opioid receptor [4] were 0.13 ± 0.015 nM, 0.047 nM and 0.00049 ± 4e-05 µM, respectively.

For the molecule `NC(=O)CNC(=O)[C@@H]1C[C@]23CCN(CC4CC4)[C@H](Cc4ccc(O)cc42)[C@]3(O)C1` [Compound 64, (2R,3aS,4R,9bS)-N-(2-amino-2-oxoethyl)-12-(cyclopropylmethyl)-3a,8-dihydroxy-1,2,3,3a,4,5-hexahydro-4,9b-(epiminoethano)cyclopenta[a]naphthalene-2-carboxamide], the results for the Emax at μ-opioid receptor [1], on κ-opioid receptor [3] and at μ-opioid receptor [4] were 48.7 ± 0.33%, 101 ± 4.98% and 3.5%, respectively. The EC50 at μ-opioid receptor [1] was 6.96 ± 0.27 nM; on κ-opioid receptor [3], 3.51 ± 0.16 nM; on μ-opioid receptor [4] (bound given in μM) it was more than 20 µM.

For the molecule `CN1CC[C@]23C[C@@H](C(N)=O)C[C@@]2(O)[C@H]1Cc1ccc(O)cc13` [Compound 77, (2R,3aS,4R,9bS)-3a,8-dihydroxy-12-methyl-1,2,3,3a,4,5-hexahydro-4,9b-(epiminoethano)cyclopenta[a]naphthalene-2-carboxamide], the Emax on μ-opioid receptor [1] is 85 ± 2.52%; at κ-opioid receptor [3], 65.3 ± 6.44%; on μ-opioid receptor [4] it was 19.6 ± 5.65%. Moreover, the values for the EC50 on μ-opioid receptor [1], on κ-opioid receptor [3] and on μ-opioid receptor [4] were 389 ± 74 nM, 1150 ± 221 nM and 0.58 ± 0.131 µM, respectively.

`CN1CC[C@]23C[C@H](C(N)=O)C[C@@]2(O)[C@H]1Cc1ccc(O)cc13` [Compound 78, (2S,3aS,4R,9bS)-3a,8-dihydroxy-12-methyl-1,2,3,3a,4,5-hexahydro-4,9b-(epiminoethano)cyclopenta-[a]naphthalene-2-carboxamide]: the Emax at μ-opioid receptor [1] was 94.7 ± 2.4%; at κ-opioid receptor [3] it was 89.7 ± 4.84%; on μ-opioid receptor [4], 27.4 ± 1.03%. The EC50 on μ-opioid receptor [1] is 89.3 ± 14.6 nM; on κ-opioid receptor [3] it was 973 ± 136 nM; at μ-opioid receptor [4] it was 0.308 ± 0.093 µM.

One may read the Emax as the maximal effect, on the per cent scale that the assay sets. As usually defined, the EC50 is the concentration needed to bring the measured effect to its halfway point.
